Drawing on ChEMBL document CHEMBL5729782, “6-heteroaryloxy benzimidazoles and azabenzimidazoles as JAK2 inhibitors” (2023), this text covers Kd for 27 compounds.

Each structure is given as a SMILES string. Values joined by “and” are separate entries in the source; they are usually repeats but may differ in a detail not shown here. Equal values may be shown once. Where only a bound is given, the exact number is not on record here.

The test in a line: Streptavidin-coated magnetic beads were treated with biotinylated small molecule ligands for 30 minutes at room temperature to generate affinity resins for kinase assays. The liganded beads were blocked with excess biotin and washed with blocking buffer (SeaBlock (Pierce), 1% BSA, 0.05% Tween 20, 1 mmol/L DTT) to remove unbound ligand and to reduce nonspecific phage binding. Binding reactions were assembled by combining kinases, liganded affinity beads, and test compounds in 1× binding buffer (1×PBS, 0.05% Tween 20, 0.1% BSA, 1 mmol/L DTT). Test compound was prepared as 111× stocks in 100% DMSO and directly diluted into the assay wells. All reactions were performed in polypropylene 384-well plates in a final volume of 0.02 mL. The assay plates were incubated at room temperature with shaking for 1 hour and the affinity beads were washed with wash buffer (1×PBS, 0.05% Tween 20). The beads were then re-suspended in elution buffer (1×PBS, 0.05% Tween 20, 0.5 μmol/L non-biotinylated affinity ligand) and incubated at room temperature with shaking for 30 minutes. The kinase concentration in the eluate was measured by qPCR.
A word on the Kd: it is the equilibrium constant for the complex coming apart. For the compound `CC(=O)Nc1cc(Oc2ccc3nc(Nc4cc(C(F)(F)F)cn(C[C@@H]5COCCO5)c4=O)n(C)c3c2)ccn1`, the Kd result is “in the range around 525 nM”.
`CO[C@H]1CCC1Cn1cc(C2CC2)cc(Nc2nc3ccc(Oc4ccnc(NC(C)=O)c4)cc3n2C)c1=O` (some centres not stated): the Kd was under 10 nM.
Turning to `COc1c(Oc2ccnc(NC(C)=O)c2)cnc2nc(Nc3nc([C@H]4CCOC4)c(C(C)(C)C)s3)n(C)c12`, the equilibrium dissociation constant (Kd) was under 10 nM.
As for `CC(=O)Nc1cc(Oc2cnc3nc(Nc4cc5n(n4)CCCC5(C)C)n(C)c3c2Cl)ccn1`, the figure is under 10 nM; as for `CNc1cc(Oc2ccnc(NC(C)=O)c2)cnc1NC(=S)Nc1cc(C2CC2)cn(C)c1=O`, under 10 nM.
`CC(=O)Nc1cc(Oc2cnc3nc(NC4=CC(C(F)(F)F)=CC(C)C4=O)n(C)c3c2Cl)ccn1` (configuration not stated): the Kd was under 10 nM.
Take `CC(=O)Nc1ccc(Oc2cnc3c(c2)nc(Nc2cc(C(C)(C)C)n([C@H]4CCOC4)n2)n3C)cn1`: the equilibrium dissociation constant (Kd) is under 10 nM.
`CC(=O)Nc1cc(Oc2ccc3nc(Nc4cc(C5CC5)cn(CC5CC[C@@H]5O)c4=O)n(C)c3c2)ccn1` (some centres not stated): the dissociation constant (Kd) is under 10 nM.
As to `COc1c(Oc2ccnc(NC(=O)C3CC3)c2)cnc2nc(Cc3cc(C4CC4)cn(C)c3=O)n(C)c12`, the Kd is under 10 nM.
Take `CC(=O)Nc1cc(Oc2cnc3nc(Nc4cc(C5CC5)cn(C)c4=O)n(C)c3c2Cl)ccn1`: the Kd entry is “in the range around 30 nM”.
As to `COc1c(Oc2ccnc(NC(C)=O)c2)cnc2nc(Nc3nc([C@@H]4CCOC4)c(C(C)(C)C)s3)n(C)c12`, the dissociation constant Kd was under 10 nM.
`COc1c(Oc2ccnc(NC(C)=O)c2)cnc2nc(Nc3cc(C(C)(C)C)n(-c4ccn(CC(F)F)c4)n3)n(C)c12`: the Kd is under 10 nM.
Consider `COc1c(Oc2ccnc(NC(=O)C3CC3)c2)cnc2nc(Nc3cc(C(C)(C)C)n(C[C@H](C)O)n3)n(C)c12`, for which the Kd was under 10 nM.
For the compound `CC(=O)Nc1cc(Oc2cnc3nc(Nc4cc(C(C)(C)C)n(C[C@H]5CCN(C)CC5(F)F)n4)n(C)c3c2)ccn1`, the dissociation constant (Kd) result is “in the range around 3000 nM”.
As for `CC(C)(C)OC(=O)N1CC2(CC(n3nc(C(F)(F)F)cc3N)C2)C1`, the figure is under 10 nM.
`CC(=O)Nc1cc(Oc2cnc3nc(Nc4cc(C(C)(C)C)n([C@H]5CCC[C@@H]5O)n4)n(C)c3c2)ccn1`: the Kd result was “in the range around 30 nM”.
As for `CC(=O)Nc1cc(Oc2ccc3nc(Nc4cc(C5CC5)cn(C5CCC5O)c4=O)n(C)c3c2)ccn1` (configuration not stated), the Kd was < 10 nM (3×) and in the range around 30 nM.
As to `CO[C@H]1CCOC[C@@H]1n1cc(C(F)(F)F)cc(Nc2nc3ccc(Oc4ccnc(NC(C)=O)c4)cc3n2C)c1=O`, the dissociation constant (Kd) is under 10 nM.
The value for `CCCCO[C@H]1C[C@@H](n2nc(Nc3nc4ccc(Oc5ccnc(NC(C)=O)c5)cc4n3C)cc2C(C)(C)C)C1` was under 10 nM; that for `COc1c(Oc2ccnc(NC(=O)C3CC3)c2)cnc2nc(Nc3cc(C(C)(C)C)n(C[C@@H](C)O)n3)n(C)c12` was under 10 nM; that for `CC(=O)Nc1cc(Oc2cnc3nc(Nc4cc(C(C)C)n(CCF)n4)n(C)c3c2)ccn1` was under 10 nM.
For the compound `CC(=O)Nc1cc(Oc2cnc3nc(Nc4cc(C(C)C)n(CC(F)F)n4)n(C)c3c2)ccn1`, the dissociation constant (Kd) was under 10 nM.
In the case of `CNC(=O)c1cc(Oc2ccc3nc(Nc4cc(C(C)(C)C)nn4C)n(C)c3c2)ccn1`, the Kd result is “in the range around 525 nM”.
As to `COc1ccc(Cn2cc(Cc3ccc(Nc4nc5ccc(Oc6ccnc(NC(C)=O)c6)cc5n4C)cc3C(F)(F)F)cn2)cc1`, the equilibrium dissociation constant (Kd) entry was “in the range around 525 nM”.
As for `CNc1cc(Oc2ccnc(NC(C)=O)c2)cnc1NC(=S)Nc1cc2n(n1)CCCC2(C)C`, the figure is under 10 nM; as for `CC(=O)Nc1cc(Oc2cnc3nc(Nc4cc(C(C)C)n(CCC#N)n4)n(C)c3c2C)ccn1`, under 10 nM; as for `COCCN1CC[C@@H](n2nc(NC3Nc4ncc(Oc5ccnc(NC(=O)C6CC6)c5)c(Cl)c4N3C)cc2C(C)(C)C)C1` (some centres not stated), under 10 nM.
